Test [1] concerns HUVECs. Description: Cell proliferation assay, HUVECs (manual count, Trypan blue exclusion). Format: cell-based, human. The settings on record: for HUVEC proliferation: 36 hours. As for the experimental part:
(§1) Cells were seeded at a concentration of 2×10^5 for HUVECs and 2×10^4 for HUVSMCs in serum free media on 12 well plates after detachment. The cells were allowed to adhere overnight in growth media, and then incubated with X-VIVO media (Cambrex) with or without cytokines (10 ng/ml FGF-2 and 2 μg/ml heparin or 10 ng/ml VEGF-A). For HRMEC experiments, cells were seeded at a concentration of 1×10^5 and allowed to settle overnight in 6-cm plates coated with attachment factor (Cell Signaling, Danvers, Mass.). The next day, fresh 10% FBS and EBM medium was added. […] After incubation, HUVEC were detached with collagenase/EDTA and HUVSMC and HRMEC were detached with trypsin/EDTA. The cells were manually counted with a Hemacytometer (Hausser Scientific, Horsham, Pa.) using Trypan blue exclusion.
First, we performed a dose response curve on unstimulated and stimulated serum free HUVECs. […] HUVECs were either unchallenged or challenged with VEGF-A or FGF-2 during the incubation. […] Cell viability was measured at 12, 24, and 36 hours after incubation.

For test [2], the system named is HUVSMCs. Description: Cell proliferation assay, HUVSMCs (manual count, Trypan blue exclusion). The format is cell-based, human. As for the experimental part:
as §1

Test [3] deals with p53. The note with it: HUVEC, 8 hours, compared to Nutlin-3B or control. Here is the method: (§2) HUVECs and HUVSMCs were incubated at 2×10^6 in X-VIVO media and HRMECs in EBM with 10% FBS under various conditions as reported in the results. Western blot extracts were prepared by lysing cells attached cells in cold RIPA buffer in the presence of protease inhibitors for HUVEC and HUVSMC and passive lysis buffer (Promega, Madison, Wis.) for HRMEC. After sonication and centrifugation to remove cell debris, the protein yield was quantified using the BCA protein assay kit (Pierce Biotechnology Inc., Rockford, Ill.). Normalized cell lysates were then mixed with sample buffer containing 2-mercaptoethanol and SDS and heated for 5 minutes at 95° C. Equal amounts of protein were run on SDS-polyacrylamide gels before being transferred to PVDF membranes. Binding of the primary antibody against p53, p21, and beta actin was detected with enhanced chemiluminescence reagent (Amersham) using HRP-conjugated secondary antibody (1:10,000, Amersham).

For test [4], the system named is p53. Kind of test: p53/p21 immunofluorescence and Western blot in HUVSMCs. Format: cell-based, human. The settings on record: HUVSMC, 7.5 μM, within 8 hours. Here is the method: as §2
Test [5] has as its system HUVECs. Kind of test: Flow cytometric analysis for apoptosis (annexin V/propidium iodide), HUVECs. Format: cell-based, human. The settings on record: HUVEC, 7.5 μM, 24 hours, compared to the control. An excerpt:
(§3) HUVECs were detached with collagenase/EDTA and HUVSMCs were detached with trypsin/EDTA. The cells were then washed twice with PBS, and stained with propidium iodide and annexin V-FITC (Annexin V-FITC apoptosis detection kit I, Beckton Dickinson) according to the manufacturer's instructions.
(In general: In flow cytometry, cells or beads pass a laser one at a time.)

The subject of test [6] is HUVSMCs. Description: Flow cytometric analysis for apoptosis (annexin V/propidium iodide), HUVSMCs. Format: cell-based, human. The settings on record: HUVSMC, 7.5 μM, 36 hours, compared to control.
Text: as §3

Test [7] has as its system HUVECs. Kind of test: TUNEL assay for apoptosis, HUVECs. The note with it: serum free HUVEC, 7.5 μM, 24 hours, compared to control. The format is cell-based, human. Here is the method:
HUVECs were plated on collagen coated plastic bottom culture dishes (MatTek Corp., Ashland, Mass.) overnight. […] HRMEC were treated with 15 μM of racemic Nutlin for 24 hours in 10% FBS. The TUNEL assay was performed following instructions provided with the kit (Roche Applied Science, Indianapolis, Ind.). Representative images of the HRMEC experiment were provided with a 4× objective using an Olympus AX70 fluorescence microscope following the addition of a nuclear counter stain. For HUVEC experiments, 5 representative fields with a 20× objective using a Zeiss confocal microscope were captured. 2 masked observers performed cell counts. For wholemount retina staining, TUNEL solution was incubated for 48 hours diluted in PBS plus 0.3% Triton-X 100 after lectin staining.

Test [8] deals with p53 siRNA infected HUVECs. Kind of test: Cell viability of p53 siRNA infected HUVECs. The format is cell-based, human. The settings on record: 7.5 μM, FGF-2, 48 hours; p53 siRNA vs control siRNA. As for the experimental part:
Passage 3 HUVECs were grown to confluence. pRETRO-SUPER and pRETRO-SUPER-p53 viruses were produced by GP2 cells (Clontech, Mountain View, Calif.). Supernatant was filtered and then added to HUVECs in the presence of […] polybrene followed by 1 μg/ml of Puromycin selection for 7 days.
To determine if the p53 pathway is necessary for the observed Nutlin-3 mediated cellular effects, we infected HUVEC with retrovirus expressing either control short interfering RNA (siRNA) or p53 siRNA. […] (A and B) HUVECs were infected with a lentiviral vector expressing p53 siRNA or control siRNA for 48 hours and then underwent Puromycin selection for 72 hours.

Test [9] concerns HUVECs. Description: Matrigel tube assay for in vitro angiogenesis. The format is cell-based, human. The note with it: FGF-2, 24 hours. As for the experimental part: Matrigel matrix (Becton Dickinson, San Jose, Calif.) was kept on ice for 24 hours. Then, 200 ill of Matrigel were added to each well of a 24 well culture plate. After hardening the Matrigel at 37° C. for 30 minutes, gels were overlaid with 500 μl of X-VIVO medium containing 3×10^4 HUVECs. […] The effect of Nutlin was inspected 24 hours under an inverted light microscope. Nine overlapping images with a 10× objective were taken of each well to perform tubule length quantification. Adobe Photoshop 7.0 (Adobe Systems Inc., San Jose, Calif.) was used to make a montage image of each well. Each montage image was then imported into LSM Image Browser v3.5 (Carl Zeiss Inc., Thornwood, N.Y.) to measure tubule length. Tubule length was then standardized to the overall pixel area examined. A masked observer assessed all measurements.

We go through two molecules from patent US20130225603A1, “MDM2 INHIBITORS FOR TREATMENT OF OCULAR CONDITIONS” (SERRATA LLC, priority 2010, published 2013).

“Also recorded” adds a separate entry of the source.

For `COc1ccc(C2=N[C@@H](c3ccc(Cl)cc3)[C@@H](c3ccc(Cl)cc3)N2C(=O)N2CCNC(=O)C2)c(OC(C)C)c1` [Nutlin-3A], the “HUVEC growth / cell viability, time course” value with HUVECs [1] (7.5 μM, unstimulated, serum free HUVEC, by 36 hours) is “near complete cell death”. Moreover, the HUVEC proliferation entry with HUVECs [1] (1, 5 or 10 μM, serum free HUVECs unchallenged or challenged with VEGF-A or FGF-2) is “inhibit HUVEC proliferation at all tested doses with greater activity at higher concentrations”. Further, the “HUVSMC proliferation, time course” value in the test with HUVSMCs [2] (7.5 μM, serum free HUVSMCs activated with FGF-2 or 5% FBS, at 48 to 72 hours) is reported as “growth inhibited”. The “HUVSMC early response to increasing concentrations” value in the test on HUVSMCs [2] (7.5, 15, 30 μM, serum free, unchallenged HUVSMCs, at 36 hours, p>0.05) is recorded as “did not find an early response”. For the same molecule, the “p53 and p21 protein (Western blot)” value with p53 [3] was “increased p53 protein, and its downstream target p21”. Further, the “p53 response (immunofluorescence and Western blot)” value with p53 [4] is on record as “initiated a p53 response; also recorded: increased p53 expression”. Further, the “double positive annexin V and propidium iodide cells (late apoptosis)” value in the test on HUVECs [5] was “significantly more double positive annexin V and propidium iodide cells”. In the test on HUVSMCs [6], the “annexin V and propidium iodide staining (apoptosis)” value is listed as “no significant difference”. Also, the “TUNEL positive cells (apoptosis)” value in the test with HUVECs [7] is given as “significantly more cells undergoing apoptosis”. For the same molecule, in test [8], the “cell viability of p53 siRNA infected HUVECs” value is on record as “p53 siRNA infected cells had become resistant”. Besides, in the test with HUVECs [9] (5 and 7.5 μM), the “dose dependence of capillary tube formation inhibition” value is on record as “dose dependent”. Further, the “reduction in capillary tube formation” value with HUVECs [9] (HUVEC on Matrigel, compared to control) worked out at 93%.

On to `COc1ccc(C2=N[C@H](c3ccc(Cl)cc3)[C@H](c3ccc(Cl)cc3)N2C(=O)N2CCNC(=O)C2)c(OC(C)C)c1` [Nutlin-3B], for which, in the test on HUVECs [1] (10 μM), the HUVEC proliferation result is “little effect on HUVEC proliferation”.
